Measurements: patent US12110316B2, “Cleavable activators of CXCR3 and methods of use” (University of Pittsburgh—Of the Commonwealth System of …, priority 2018, dated 2024)

System: choroidal neovascularization (CNV)
Test: Laser-induced choroidal neovascularization (CNV) mouse model
Type: in vivo
Details: female C57BL/6J mice; 1 μg (FIG. 1A) or 3 μg (FIG. 1B) peptide injected in 1 μl in one eye immediately after laser; scramble peptide in contralateral eye; measured seven days after laser
Method: Since the histidine to serine substitution is a non-conserved amino acid change, experiments were performed to confirm that the engineered peptide retained the ability to block angiogenesis and fibrosis in a mouse model of choroidal neovascularization (CNV).
Mouse CNV was induced by laser photocoagulation-induced rupture of Bruch's membrane as previously described. Briefly, 7- to 8-week-old female C57BL/6J mice were anesthetized with ketamine hydrochloride (100 mg/kg body weight), and pupils were dilated with 1% tropicamide. Three burns of 532-nm diode laser photocoagulation (spot size, […]; duration, 0.1 sec; power, 120 mW) were delivered to each retina with the slit lamp delivery system of an OcuLight GL diode laser (Iridex, Mountain View, CA), using a coverslip as a contact lens to view the retina. Burns were performed at the 9, 12, and 3 o'clock positions of the posterior pole of the retina. […]
Immediately after laser treatment, mice were injected with either 1 μg (FIG. 1A) or 3 μg (FIG. 1B) of Peptide 110 (SEQ ID NO: 2), or one of three positive control peptides (Peptide 102, Peptide 105 or Peptide 107), in a volume of 1 μl in one eye and the contralateral eyes were injected with scramble peptide as control. […] After three washes with PBST, choroids were mounted on glass slides and were examined by fluorescence microscopy. […]

## PESKAIKNLLKAVHKEMSKRSP [Peptide 110, modified fragment of human CXCL10 with a cathepsin G and neutrophil elastase cleavage site]
  choroidal neovascularization (total area of choroidal NV at each rupture site); anti-angiogenic activity: significant reduction
